Results published in patent US20250230193A1, “CYCLIC COMPOUND HAVING SELECTIVE KRAS INHIBITORY EFFECT ON HRAS AND NRAS” (CHUGAI SEIYAKU KABUSHIKI KAISHA, priority 2022, published 2025).
Where a SMILES comes first, the peptide text is derived from it. Bridges are numbered along the chain shown (N, C = ends). [ ]: non-standard residue; d: D form. The star is where a group is joined. hPhe(3-Cl-4-CF3) = N[C@@H](CCc1ccc(C(F)(F)F)c(Cl)c1)C(=O)O; NPrPhe(4-CF3) = CCCN[C@@H](Cc1ccc(C(F)(F)F)cc1)C(=O)O; NMeGly(cPent) = CN[C@H](C(=O)O)C1CCCC1; Pro(4,4-F2) = O=C(O)[C@@H]1CC(F)(F)CN1; Hyp = O=C(O)[C@@H]1C[C@@H](O)CN1; NMeD = CN[C@@H](CC(=O)O)C(=O)O; NMeL = CN[C@@H](CC(C)C)C(=O)O; Morpholide = C1CN(*)CCO1; NMeA = CN[C@@H](C)C(=O)O; Ac5c = NC1(C(=O)O)CCCC1; Aze = O=C(O)[C@@H]1CCN1; Ac4c = NC1(C(=O)O)CCC1; NEtG = CCNCC(=O)O; Sar = CNCC(=O)O

Assays:
[1] = target: GDP-bound HRAS wild-type protein (Homo sapiens, UniProt P01112); test: Binding to HRAS by surface plasmon resonance (SPR), Single Cycle Kinetics; settings: KD ratio HRAS/KRAS, SPR
[2] = target: GDP-bound NRAS wild-type protein (Homo sapiens, UniProt P01111); test: Binding to NRAS by surface plasmon resonance (SPR), Single Cycle Kinetics; settings: KD ratio NRAS/KRAS, SPR
GDP-bound NRAS wild-type protein, sequence (P01111 whole entry): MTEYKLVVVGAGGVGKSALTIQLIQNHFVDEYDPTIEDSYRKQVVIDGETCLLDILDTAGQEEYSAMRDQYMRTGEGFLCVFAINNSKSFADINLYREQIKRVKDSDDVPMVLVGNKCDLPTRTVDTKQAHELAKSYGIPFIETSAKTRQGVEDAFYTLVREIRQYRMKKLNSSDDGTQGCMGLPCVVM

GDP-bound HRAS wild-type protein, sequence (P01112 whole entry): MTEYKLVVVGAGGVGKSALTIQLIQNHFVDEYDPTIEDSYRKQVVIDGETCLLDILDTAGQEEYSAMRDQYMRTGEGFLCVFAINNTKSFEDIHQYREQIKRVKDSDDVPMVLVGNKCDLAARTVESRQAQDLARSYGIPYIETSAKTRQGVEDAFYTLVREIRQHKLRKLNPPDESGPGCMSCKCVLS

| SMILES | HRAS/KRAS (ratio of KD for GDP-bound HRAS wild-type to KD for KRAS) [1] | NRAS/KRAS (ratio of KD for GDP-bound NRAS wild-type to KD for KRAS) [2] |
| --- | --- | --- |
| CCCN1C(=O)CN(C)C(=O)CN(CC)C(=O)[C@H]([C@@H](C)CC)NC(=O)[C@H](CC(C)C)N(C)C(=O)C[C@@H](C(=O)N2CCOCC2)N(C)C(=O)[C@H](C2CCCC2)N(C)C(=O)C2(CCC2)NC(=O)[C@@H]2CC(F)(F)CN2C(=O)[C@H](CCc2ccc(C(F)(F)F)c(Cl)c2)NC(=O)CN(C)C(=O)[C@@H]1Cc1ccc(C(F)(F)F)cc1 [PP0400] ([NMeL]I[NEtG][Sar][NPrPhe(4-CF3)][Sar][hPhe(3-Cl-4-CF3)][Pro(4,4-F2)][Ac4c][NMeGly(cPent)][NMeD]-Morpholide; lactam N-11) | B (a compound having 3 or more and less than 10 is denoted as B) | B (a compound having 3 or more and less than 10 is denoted as B) |
| CCCN1C(=O)CN(C)C(=O)CN(CC)C(=O)[C@H]([C@@H](C)CC)NC(=O)[C@H](CC(C)C)N(C)C(=O)C[C@@H](C(=O)N2CCOCC2)N(C)C(=O)[C@H](C2CCCC2)N(C)C(=O)C2(CCC2)NC(=O)[C@@H]2C[C@@H](OCC)CN2C(=O)[C@H](CCc2ccc(C(F)(F)F)c(Cl)c2)NC(=O)CN(C)C(=O)[C@@H]1Cc1ccc(C(F)(F)F)cc1 [PP0401] ([NMeL]I[NEtG][Sar][NPrPhe(4-CF3)][Sar][hPhe(3-Cl-4-CF3)][Hyp](Et)[Ac4c][NMeGly(cPent)][NMeD]-Morpholide; lactam N-11) | B (a compound having 3 or more and less than 10 is denoted as B) | B (a compound having 3 or more and less than 10 is denoted as B) |
| CCCN1C(=O)CN(C)C(=O)[C@@H]2CCN2C(=O)[C@H]([C@@H](C)CC)NC(=O)[C@H](CC(C)C)N(C)C(=O)C[C@@H](C(=O)N2CCOCC2)N(C)C(=O)[C@H](C2CCCC2)N(C)C(=O)C2(CCC2)NC(=O)[C@@H]2CCCN2C(=O)[C@H](CCc2ccc(C(F)(F)F)c(Cl)c2)NC(=O)CN(C)C(=O)[C@@H]1Cc1ccc(C(F)(F)F)cc1 [PP0402] ([NMeL]I[Aze][Sar][NPrPhe(4-CF3)][Sar][hPhe(3-Cl-4-CF3)]P[Ac4c][NMeGly(cPent)][NMeD]-Morpholide; lactam N-11) | C (A compound having a KD ratio of 0.1 or more and less than 3 is denoted as C) | B (a compound having 3 or more and less than 10 is denoted as B) |
| CCCN1C(=O)CN(C)C(=O)[C@@H]2CCN2C(=O)[C@H]([C@@H](C)CC)NC(=O)[C@H](CC(C)C)N(C)C(=O)C[C@@H](C(=O)N2CCOCC2)N(C)C(=O)[C@H](C2CCCC2)N(C)C(=O)C2(CCCC2)NC(=O)[C@@H]2CC(F)(F)CN2C(=O)[C@H](CCc2ccc(C(F)(F)F)c(Cl)c2)NC(=O)CN(C)C(=O)[C@@H]1Cc1ccc(C(F)(F)F)cc1 [PP0403] ([NMeL]I[Aze][Sar][NPrPhe(4-CF3)][Sar][hPhe(3-Cl-4-CF3)][Pro(4,4-F2)][Ac5c][NMeGly(cPent)][NMeD]-Morpholide; lactam N-11) | B (a compound having 3 or more and less than 10 is denoted as B) | B (a compound having 3 or more and less than 10 is denoted as B) |
| CCCN1C(=O)CN(C)C(=O)[C@@H]2CCN2C(=O)[C@H]([C@@H](C)CC)NC(=O)[C@H](CC(C)C)N(C)C(=O)C[C@@H](C(=O)N2CCOCC2)N(C)C(=O)[C@H](C2CCCC2)N(C)C(=O)C2(CCC2)NC(=O)[C@@H]2CC(F)(F)CN2C(=O)[C@H](CCc2ccc(C(F)(F)F)c(Cl)c2)NC(=O)CN(C)C(=O)[C@@H]1Cc1ccc(C(F)(F)F)cc1 [PP0404] ([NMeL]I[Aze][Sar][NPrPhe(4-CF3)][Sar][hPhe(3-Cl-4-CF3)][Pro(4,4-F2)][Ac4c][NMeGly(cPent)][NMeD]-Morpholide; lactam N-11) | C (A compound having a KD ratio of 0.1 or more and less than 3 is denoted as C) | B (a compound having 3 or more and less than 10 is denoted as B) |
| CCCN1C(=O)CN(C)C(=O)[C@@H]2CCN2C(=O)[C@H]([C@@H](C)CC)NC(=O)[C@H](CC(C)C)N(C)C(=O)C[C@@H](C(=O)N2CCOCC2)N(C)C(=O)[C@H](C2CCCC2)N(C)C(=O)C2(CCC2)NC(=O)[C@@H]2C[C@@H](OCC)CN2C(=O)[C@H](CCc2ccc(C(F)(F)F)c(Cl)c2)NC(=O)CN(C)C(=O)[C@@H]1Cc1ccc(C(F)(F)F)cc1 [PP0405] ([NMeL]I[Aze][Sar][NPrPhe(4-CF3)][Sar][hPhe(3-Cl-4-CF3)][Hyp](Et)[Ac4c][NMeGly(cPent)][NMeD]-Morpholide; lactam N-11) | C (A compound having a KD ratio of 0.1 or more and less than 3 is denoted as C) | B (a compound having 3 or more and less than 10 is denoted as B) |
| CCCN1C(=O)[C@@H]2CCN2C(=O)[C@H](C)N(C)C(=O)[C@H]([C@@H](C)CC)NC(=O)[C@H](CC(C)C)N(C)C(=O)C[C@@H](C(=O)N2CCOCC2)N(C)C(=O)[C@H](C2CCCC2)N(C)C(=O)C2(CCC2)NC(=O)[C@@H]2C[C@@H](OCC)CN2C(=O)[C@H](CCc2ccc(C(F)(F)F)c(Cl)c2)NC(=O)CN(C)C(=O)[C@@H]1Cc1ccc(C(F)(F)F)cc1 [PP0406] ([NMeL]I[NMeA][Aze][NPrPhe(4-CF3)][Sar][hPhe(3-Cl-4-CF3)][Hyp](Et)[Ac4c][NMeGly(cPent)][NMeD]-Morpholide; lactam N-11) | B (a compound having 3 or more and less than 10 is denoted as B) | C (A compound having a KD ratio of 0.1 or more and less than 3 is denoted as C) |
| CCCN1C(=O)[C@@H]2CCN2C(=O)CN(C)C(=O)[C@H]([C@@H](C)CC)NC(=O)[C@H](CC(C)C)N(C)C(=O)C[C@@H](C(=O)N2CCOCC2)N(C)C(=O)[C@H](C2CCCC2)N(C)C(=O)C2(CCC2)NC(=O)[C@@H]2CCCN2C(=O)[C@H](CCc2ccc(C(F)(F)F)c(Cl)c2)NC(=O)CN(C)C(=O)[C@@H]1Cc1ccc(C(F)(F)F)cc1 [PP0407] ([NMeL]I[Sar][Aze][NPrPhe(4-CF3)][Sar][hPhe(3-Cl-4-CF3)]P[Ac4c][NMeGly(cPent)][NMeD]-Morpholide; lactam N-11) | B (a compound having 3 or more and less than 10 is denoted as B) | C (A compound having a KD ratio of 0.1 or more and less than 3 is denoted as C) |
| CCCN1C(=O)[C@@H]2CCN2C(=O)CN(C)C(=O)[C@H]([C@@H](C)CC)NC(=O)[C@H](CC(C)C)N(C)C(=O)C[C@@H](C(=O)N2CCOCC2)N(C)C(=O)[C@H](C2CCCC2)N(C)C(=O)C2(CCCC2)NC(=O)[C@@H]2CC(F)(F)CN2C(=O)[C@H](CCc2ccc(C(F)(F)F)c(Cl)c2)NC(=O)CN(C)C(=O)[C@@H]1Cc1ccc(C(F)(F)F)cc1 [PP0408] ([NMeL]I[Sar][Aze][NPrPhe(4-CF3)][Sar][hPhe(3-Cl-4-CF3)][Pro(4,4-F2)][Ac5c][NMeGly(cPent)][NMeD]-Morpholide; lactam N-11) | B (a compound having 3 or more and less than 10 is denoted as B) | C (A compound having a KD ratio of 0.1 or more and less than 3 is denoted as C) |
